Test results reported in US12422660B2, “Microscope for imaging samples within wells of multi-well plates hold by stage and beam homogenizer for homogenizing beam” (QUIVER HOLDINGS INC., priority 2020, dated 2025).
“Also recorded” adds a separate entry of the source.

How the values were obtained:
[1] = test system: iPSC-derived excitatory cortical neurons (NGN2) with LOF mutation (knockout/KO); assay: Optopatch multi-dimensional analysis of disease phenotype reversal and side effects; type: cell-based, human; settings: for cell behavior projected onto phenotype/side effect space: KO cells, 8 concentrations from 0.28 to 600 μM, increasing concentration; for reversal of functional phenotype (WT vs KO), radar plot: KO neurons, 30 days in culture
Excerpt: In compound screening, multidimensional data may be reduced to a few parameters that can be used to rank and select compounds to advance. In disease modeling, for example, one uses hiPSC-derived neurons from patients and healthy controls, and screens for compounds that induce the disease cells to behave like healthy cells. The dimensionality reduction is described in FIG. 27-FIG. 29.
FIG. 27-FIG. 29 show multi-dimensional analysis with iPSC-derived excitatory cortical neurons (NGN2), 30 days in culture.
FIG. 27 is Radar plot showing a select subset of parameters normalized to values for wildtype (WT) neurons. […] The difference between WT and KO traces is the functional phenotype.
FIG. 28 is a diagram illustrating phenotype reversal and “side effects.” In the ˜300-dimensional space of recorded parameters, only two of which are shown, WT wells are clustered and KO wells are clustered. The vector between these populations represents the phenotype (red). Drug effects (blue) are deconstructed into components along (phenotype reversal) and orthogonal to (side effects) the phenotype vector. An ideal drug would undo the effects of the mutation and move the well from the KO cloud to the WT cloud.
FIG. 29 is a plot showing many wells projected onto the phenotype/side effect space. WT and KO wells are well separated along the phenotype direction. Application of the two compounds (8 concentrations from 0.28 to 600 μM) from FIG. 27 have increasing effects on KO cell behavior as the concentration increases. […] The connected drug points are in order of increasing concentration, and the two lines are experimental replicates on two consecutive weeks of experiment.

[2] = test system: E18 rat hippocampal neurons; assay: Optopatch pharmacology and high-throughput validation on 96-well Firefly; type: cell-based; settings: for drug-induced change in neuronal spiking behavior: neurons cultured 14 days, vehicle normalized to 1; for firing rate: 1 μM, 96-well plate, alternating columns vs vehicle
Procedure: Concentration response curves are readily measured with the Optopatch platform (FIG. 31). All compounds show large effect sizes and good repeatability on two independent plates. Each symbol represents>100 cells in one well. All the data shown were measured in a single day.
The system is also approaching readiness for high-throughput drug screening. To test system uniformity and repeatability, ML-213 is added to alternating columns in a 96-well plate (FIG. 32-FIG. 37). The change in spike rate during the ramp is readily visible in each well and is uniform across the plate (FIG. 34-35). Using one parameter, number of spikes during the ramp, the Z′ of 0.31 indicates a failed call in 1 of 73,000 wells, sufficient for screening tens of thousands of compounds for phenotypic screens in neurons. There was a small drift in time as wells were read out serially at room temperature (FIG. 36). Recent improvements in automation control software have reduced the scan time per FOV from 30 seconds to 10 seconds, which will reduce scan time artifacts. Furthermore, the microscope will have a 5× increased imaging area, reducing the number of FOVs per well to 1 and further increasing screening speed.
FIGS. 30 & 31 show pharmacology e.g., with E18 rat hippocampal neurons cultured 14 days.
FIG. 30 is radar plots showing the drug-induced change in neuronal spiking behavior along many dimensions, tabulated at right. For each parameter, the vehicle is normalized to 1 (green); drug effects in orange.
FIG. 32-FIG. 37 show high-throughput validation for screening with E18 rat hippocampal neurons cultured for 14 days.
The blue light stimulus is shown below.

[3] = test system: hiPSC-derived motor neurons; assay: Optopatch intrinsic excitability and pharmacological response, before and after compound addition; type: cell-based, human; settings: 1 μM, before vs after addition, blue light stimulus
Excerpt: Firefly image with overlay (colored regions) of hiPSC-derived motor neurons are identified by automated analysis.
Example voltage recordings from selected cells, and the blue stimulus used to evoke firing: steps, pulse trains, and ramps are shown. […]
FIG. 21 is a raster plot where each point is an identified action potential and each row is a neuron from a single FOV.
Analysis overview: FIGS. 19-26 show the automated analysis workflow for measurements of intrinsic excitability and pharmacological response in hiPSC-derived motor neurons. Neurons are interrogated with a stimulus protocol (blue) designed to probe a broad range of spiking behaviors. All pixels capturing fluorescence from one neuron co-vary in time following that cell's unique firing pattern (FIG. 20). The temporal covariance is used to generate a weight mask for each cell (colored regions in FIG. 19); masked pixels are averaged for each frame in the movie to calculate the voltage traces. Each FOV was recorded twice, before and after addition of potassium channel opener ML213. […] From the fluorescence-time traces, each action potential in the dataset is identified (FIG. 21), and firing rate (FIG. 22), spike shape parameters (FIG. 23) and relative timings (FIG. 24 & FIG. 25) are measured as a function of stimulus. […]

Compound | cell behavior projected onto phenotype/side effect space [1] | reversal of functional phenotype (WT vs KO), radar plot [1] | drug-induced change in neuronal spiking behavior [2] | firing rate [2] | firing rate ([2]; listed as ML-213) | neuronal excitability / firing [3]
Nc1ccncc1 [4-AP] | moves cell behavior toward and beyond WT behavior | substantially reversed the phenotype |  |  |  | 
O=C1c2ccccc2C(Cc2ccncc2)(Cc2ccncc2)c2ccccc21 [XE-991] |  |  | drive behavior in opposite directions |  |  | 
Cc1cc(C)c(NC(=O)C2CC3CCC2C3)c(C)c1 (stereo not drawn) [ML213] |  |  | drive behavior in opposite directions | dramatically reduces firing rate in all wells tested | reduces firing | suppresses firing; also recorded: clear reduction in neuronal excitability
Nc1nnc(-c2cccc(Cl)c2Cl)c(N)n1 [lamotrigine] | moves behavior away from both WT and KO | perturbed behavior but did not reverse the phenotype |  |  |  | 
